Legend:
Assay type in all cases: biochemical
[1] = biological target: T1, Lactoperoxidase (LPO) (Bos taurus, UniProt P80025); assay: stopped-flow spectrophotometry, reduction of LPO Compound II to native LPO; settings: 1 µM LPO, 0.75 µM H2O2, 20 mM phosphate pH 6, 15 °C; one-electron donor in peroxidation cycle
T1 construct: native enzyme from bovine milk, commercial lyophilisate (Sigma-Aldrich), heme-containing, mature secreted form

[2] = biological target: T1, Lactoperoxidase (LPO); assay: Ellman's reagent assay of OSCN- formation, […] nm
[3] = biological target: T1, Lactoperoxidase (LPO); assay: Ellman's reagent assay of OSCN- formation, […] nm; remark: listed apart in the source

Cc1cc(O)c2c(c1)C(=O)c1cc(O)cc(O)c1C2=O [c, Emodin]
k (Compound II -> Native LPO) [1]: this compound may be a substrate for LPO Compound I and Compound II

Oc1cc(O)c2c(c1)O[C@H](c1ccc(O)c(O)c1)[C@H](O)C2 [a, (-)-Epicatechin]
EC50 [2]: 1310 ± 239 nM | IC50 [3]: 74100 ± 3620 nM

Oc1ccc(/C=C/c2cc(O)cc(O)c2)cc1 [b, Resveratrol]
EC50 [2]: 9 ± 2 nM | IC50 [3]: 423 ± 18 nM

From paper PMC8146912, “Phenolic Compounds of Reynoutria sp. as Modulators of Oral Cavity Lactoperoxidase System” (Antioxidants, 2021)
